From patent US11753371B2 (BATTERJEE MEDICAL COLLEGE, priority 2021, dated 2023)

Columns and labels:
Assay type in all cases: biochemical
[1] = biological target: human FAAH (hFAAH) (Homo sapiens (Human), UniProt O00519); test: FAAH enzyme inhibition assay (Cayman screening kit, AMC-arachidonoyl amide); set-up: key to IC50 (μM) ± SE (hFAAH): NI: no inhibition seen at the tested conditions
Experimental: FAAH inhibition assay was performed using Fatty Acid Amide Hydrolase Inhibitor Screening Assay Kit (Item #10005196), Cayman (1180 E Ellsworth Rd Ann Arbor, MI, USA). […] Manufacturer's protocol was followed to perform the assay. The assay buffer (125 mM Tri-HCl with 1 mM EDTA, pH 9.0) was used to dilute the FAAH human recombinant enzyme. AMC-Arachidonoyl amide, at a concentration of 400 μM was then used as the FAAH substrate. Samples were mixed for 30 s and incubated at 37° C. for 30 min. The fluorescent by-product AMC (7-amino-4-methylcoumarin) released by the FAAH enzyme was detected and quantified at an excitation wavelength of 355 nm and emission wavelength of 460 nm.

[2] = biological target: ALDH1a1 (Homo sapiens (Human), UniProt P00352); test: ALDH assay (diaphorase/resazurin), ALDH1a1 inhibition
ALDH1a1, sequence (P00352 whole entry): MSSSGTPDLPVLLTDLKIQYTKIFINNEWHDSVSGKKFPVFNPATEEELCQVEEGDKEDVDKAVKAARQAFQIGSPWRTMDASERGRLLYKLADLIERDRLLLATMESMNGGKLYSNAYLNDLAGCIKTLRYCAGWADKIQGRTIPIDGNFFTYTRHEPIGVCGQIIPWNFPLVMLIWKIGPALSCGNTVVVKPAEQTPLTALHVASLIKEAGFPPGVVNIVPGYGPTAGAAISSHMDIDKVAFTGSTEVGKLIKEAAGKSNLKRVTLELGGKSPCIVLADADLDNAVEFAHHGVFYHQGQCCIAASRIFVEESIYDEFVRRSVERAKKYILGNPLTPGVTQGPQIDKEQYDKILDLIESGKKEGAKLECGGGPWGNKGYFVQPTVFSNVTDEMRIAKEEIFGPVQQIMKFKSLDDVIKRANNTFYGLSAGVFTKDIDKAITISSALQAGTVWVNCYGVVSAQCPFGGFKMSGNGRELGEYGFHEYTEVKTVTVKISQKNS
Text: (§1) ALDH catalyzes the oxidation of acetaldehyde to acetic acid while reducing NAD+ to NADH. The formation of NADH is fluorescently detected using diaphorase/resazurin system. Diaphorase utilizes NADH formed from ALDH reaction to produce the fluorescent molecule resorufin from resazurin. See Davis, M. I.; Shen, M.; Simeonov, A.; Hall, M. D., Diaphorase Coupling Protocols for Red-Shifting Dehydrogenase Assays.
(§2) The reagent ALDH1a1 is from R&D Systems (Minneapolis, MN). ALDH2 is from Prospect Bio (East Brunswick, NJ). Acetaldehyde is from Cayman Chemicals (Ann Arbor, MI). NAD^+, and Resazurin sodium salt are from Sigma (St. Louis, MO). Diaphorase is from Reaction Biology (Malvern PA). Zaba micro spin columns are from ThermoFisher scientific (Waltham, MA). […] Desalted samples from each enzyme were pooled together and placed in ice until use. Reaction buffer (50 mM sodium pyrophosphate buffer at pH 8.8, 0.01% Brij35) degassed using vacuum for 10 mins until no visible air bubbles were seen.
(§3) 5 μl of reaction buffer was delivered to ‘no enzyme’ background control wells. Test compounds were prepared in 100% DMSO by serial dilution in 100× of assay concentration. After adding the test compounds, reaction plate was centrifuged briefly in 1200 rpm, then incubated for 20 min at room temperature, to pre-incubate enzyme and compounds. […] Reaction plate was briefly centrifuged and sealed with a plastic film to limit evaporation. After incubation at room temperature for 60 min, 10 μl of detection reagent (15 μg/ml diaphorase, 30 μM resazurin prepared in the degassed reaction buffer) was added. Reaction plate was briefly centrifuged and incubated for 10 minutes at room temperature in the dark.

[3] = biological target: human MAGL (hMAGL) (Homo sapiens (Human), UniProt Q99685); test: MAGL enzyme inhibition assay (4-nitrophenylacetate); conditions: relative to disulfiram / unsubstituted analogue
human MAGL (hMAGL), sequence (Q99685 whole entry): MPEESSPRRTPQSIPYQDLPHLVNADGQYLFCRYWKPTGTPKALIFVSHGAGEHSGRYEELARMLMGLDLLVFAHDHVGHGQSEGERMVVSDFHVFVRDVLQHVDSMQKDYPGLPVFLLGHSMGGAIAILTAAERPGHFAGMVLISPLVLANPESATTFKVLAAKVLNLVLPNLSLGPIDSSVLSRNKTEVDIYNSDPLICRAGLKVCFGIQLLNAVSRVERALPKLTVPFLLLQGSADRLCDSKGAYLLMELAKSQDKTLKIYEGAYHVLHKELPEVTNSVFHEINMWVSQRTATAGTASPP
Experimental: The plate was mixed for 30 s and incubated at room temperature for 30 min.

[4] = biological target: ALDH2 (Homo sapiens (Human), UniProt P05091); test: ALDH assay (diaphorase/resazurin), ALDH2 inhibition
ALDH2, sequence (P05091 18-517): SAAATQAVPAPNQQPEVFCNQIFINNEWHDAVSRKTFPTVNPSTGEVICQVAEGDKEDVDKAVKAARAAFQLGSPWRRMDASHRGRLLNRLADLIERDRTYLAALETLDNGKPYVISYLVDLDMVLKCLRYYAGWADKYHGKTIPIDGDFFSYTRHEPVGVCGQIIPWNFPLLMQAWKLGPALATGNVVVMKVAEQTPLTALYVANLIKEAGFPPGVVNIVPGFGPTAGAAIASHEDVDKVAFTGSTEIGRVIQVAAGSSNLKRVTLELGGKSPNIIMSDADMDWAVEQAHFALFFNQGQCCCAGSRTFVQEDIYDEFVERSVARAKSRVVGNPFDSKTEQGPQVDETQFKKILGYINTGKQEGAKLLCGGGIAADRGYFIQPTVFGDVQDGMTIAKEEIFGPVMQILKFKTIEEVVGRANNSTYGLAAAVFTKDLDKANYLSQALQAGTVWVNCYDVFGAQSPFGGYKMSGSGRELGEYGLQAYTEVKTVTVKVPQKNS
Text: as §1, §2, §3

[5] = Table II, average of at least two different experiments

human FAAH (hFAAH), sequence (O00519 whole entry): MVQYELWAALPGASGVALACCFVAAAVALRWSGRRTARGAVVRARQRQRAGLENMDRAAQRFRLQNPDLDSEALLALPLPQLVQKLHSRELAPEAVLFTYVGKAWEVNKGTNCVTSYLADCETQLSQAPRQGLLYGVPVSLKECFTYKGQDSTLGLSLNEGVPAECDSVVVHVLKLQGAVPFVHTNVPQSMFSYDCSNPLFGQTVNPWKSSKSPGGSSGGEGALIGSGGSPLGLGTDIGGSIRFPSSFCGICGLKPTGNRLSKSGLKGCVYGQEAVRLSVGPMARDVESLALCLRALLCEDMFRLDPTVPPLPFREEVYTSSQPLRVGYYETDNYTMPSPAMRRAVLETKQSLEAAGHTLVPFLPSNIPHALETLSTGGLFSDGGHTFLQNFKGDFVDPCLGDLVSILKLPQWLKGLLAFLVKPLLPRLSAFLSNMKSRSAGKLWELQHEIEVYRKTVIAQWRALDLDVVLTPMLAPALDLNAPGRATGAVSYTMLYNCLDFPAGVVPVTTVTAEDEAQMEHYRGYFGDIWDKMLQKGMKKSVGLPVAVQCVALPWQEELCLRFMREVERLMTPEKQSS

| Compound | FAAH inhibitory activity (in words) [1] | IC50 (μM) ± SE (hFAAH) [1, 5] | ALDH1a1 inhibitory activity (in words) [2] | also measured |
| --- | --- | --- | --- | --- |
| bis(N-4-ethoxycarbonylbenzylethylthiocarbamoyl)disulphide [II-2l] | devoid of anti-FAAH activity | NI |  |  |
| CCN(Cc1ccc(C(=O)O)cc1)C(=S)SSC(=S)N(CC)Cc1ccc(C(=O)O)cc1 [Compound I-2d] | devoid of anti-FAAH activity | NI |  | change in ALDH1a1 inhibitory activity relative to I-2a ([2]; para carboxylic acid versus I-2a): tenfold decrease; fold decrease in MAGL inhibitory activity [3]: 20 fold |
| CCN(C)C(=S)SSC(=S)N(C)CC [Compound I-2g] |  |  |  | IC50 ([2]; Table I, mean of at least two independent experiments, read-out: IC50 (μM) ± SE (ALDH1a1)): 0.02 ± 0.01 µM; IC50 ([4]; Table I, mean of at least two independent experiments, read-out: IC50 (μM) ± SE (ALDH2)): 0.32 ± 0.04 µM |
| CCN(CCC(=O)O)C(=S)SSC(=S)N(CC)CCC(=O)O [Compound I-2e, bis(N-carboxylethylethylthiocarbamoyl)disulfide] |  |  |  | IC50 ([1]; Table II, average of at least two different experiments, read-out: IC50 (μM) ± SE (hFAAH)): 122 ± 1.57 µM |
| CCN(Cc1ccc(C)cc1)C(=S)SSC(=S)N(CC)Cc1ccc(C)cc1 [III-2i, bis (N-4-Methylbenzyethylthiocarbamoyl) disulphide] |  |  |  | Aldh1a1 (IC50, μM) ± SE ([2]; Table III): No inhibition; Aldh2 (IC50, μM) ± SE ([4]; Table III): No inhibition |
| CC(=O)N[C@@H](CS)C(=O)O [5 N•Acetyl-i-Cysteine, N•Acetyl-i-Cysteine] |  |  | none of them showed any activity | ALDH2 inhibitory activity (in words) [4]: none of them showed any activity |
| Cl.NCCS [3 Cysteamine•HCl, Cysteamine•HCl] |  |  | none of them showed any activity | ALDH2 inhibitory activity (in words) [4]: none of them showed any activity |
| CC(C)N(C(=S)SSC(=S)N(C(C)C)C(C)C)C(C)C [Compound I-2h] |  | NI |  |  |
| CC(C)CN(CC(C)C)C(=S)SSC(=S)N(CC(C)C)CC(C)C [Compound I-2j] | no inhibition of FAAH | NI | complete loss of activity | fold decrease in MAGL inhibitory activity [3]: up to 15 fold |
